≈ marks a conversion by molar mass, not a printed value. Square brackets hold non-standard residues; d marks the D form. Peptide text beside a SMILES is read from it. N(1-naphthylmethyl)Gly = O=C(O)CNCc1cccc2ccccc12; Nphe = O=C(O)CNCc1ccccc1; NBuGly = CCCCNCC(=O)O
Tests used:
in vitro [1] = type: cell-based, human; settings: human
Description: (§1) The haemolytic activity of the 24 structurally related peptides (Table 1) was evaluated in erythrocytes from four different species (human, canine, bovine and rat) employing standard methodology. The subsequent release of haemoglobin was used to assess haemolytic activity as function of peptide and peptidomimetic concentration, with concentrations ranging from 0.15 to 150 µM (Presented in whole in Supplementary information Table S1–S4).
(§2) Human and rat (Sprague–Dawley) blood samples were purchased by Bioreclamation IVT (Westbury, NY, USA), collected in tubes containing heparin as anticoagulant and stored at 4 °C before use. Dog and bovine whole blood was collected from in-house animals at Zoetis Animal Health, Kalamazoo, Michigan and stored at 4 °C in tubes containing heparin as anticoagulant. 10 mL of each whole blood sample were centrifuged at 1,500 × g for 5 min and the resulting plasma fraction was removed from the samples. The pellets were washed with an equal volume (10 mL) of saline, mixing by inversion. The centrifuging and washing steps were repeated 5 times. After the last washing step, a volume of PBS was added, and the resulting samples were diluted 1:10 with PBS to yield an RBC concentration of ~ 5 × 10^8 RBC/mL. The assay was performed in a 384-well polypropylene microplate (Greiner 784201, Greiner Bio-One International, GMBH) through a Bravo Liquid Handling Platform 384 system (Agilent Technologies, Santa Clara, CA, USA) according to the previously published procedures. The compounds were tested in serial 1:1 dilutions in PBS, with final concentrations ranging from 150 to 1.2 µM. Melittin was used as reference lytic peptide. 1% TritonX100 and PBS were used as positive and negative (diluent) controls, respectively. The final concentrations were obtained by adding to the wells 7 µL of each solution, melittin or PBS, followed by 63 µL of RBCs to each well. The plate was sealed, shaken on a plate shaker for 20 s, incubated for one hour at 37 °C. Finally, it was centrifuged at 1,500 × g for 5 min at room temperature. 60 µL of supernatants were removed from all plate wells via a Bravo 384 robot and transferred to a flat-bottomed 384-well plate (Greiner UV-Star #7810801, Greiner Bio-One International, GMBH). The plate was centrifuged at 1,000 g for 1 min to remove air bubbles and optical density was measured at 405 nm using a plate reader. Percentage of haemolysis was calculated with the following equation: %haemolysis=(absorbance of test sample)-absorbance of diluent/absorbance of positive control-absorbance of diluent×100.

human erythrocytes = test: in vitro; type: cell-based; settings: for IC10 haemolysis: human erythrocytes; for IC50: red cells of human
Description: as §1, §2

in vitro [2] = type: cell-based, dog; settings: dog
Description: as §1, §2

canine erythrocytes = test: in vitro; type: cell-based, dog; settings: for IC10 haemolysis: canine erythrocytes; for IC50: red cells of canine
Description: as §1, §2

in vitro [3] = type: cell-based, bovine; settings: bovine
Description: as §1, §2

[4] = test system: Staphylococcus pseudintermedius; settings: cited from earlier work
Pseudomonas aeruginosa = test system: Pseudomonas aeruginosa; design: method as in PMID 30842436; settings: cited from earlier work
Staphylococcus aureus = test system: Staphylococcus aureus; design: method as in PMID 30842436; settings: cited from earlier work
in vitro [5] = type: cell-based, rat (Sprague–Dawley); settings: Sprague-Dawley, rat
Description: as §1, §2

rat erythrocytes = test: in vitro; type: cell-based, rat (Sprague–Dawley); settings: for IC10 haemolysis: rat erythrocytes; for IC50: red cells of rat
Description: as §1, §2

bovine erythrocytes = test: in vitro; type: cell-based; settings: bovine erythrocytes
Description: as §1, §2

Row | Structure (SMILES) | IC50 (human erythrocytes) [µM] | IC50 (canine erythrocytes) [µM] | IC50 (rat erythrocytes) [µM] | hemolysis at 1 h, 150 µM (in vitro [1]) [%] | IC10 haemolysis (human erythrocytes) [µM] | hemolysis at 1 h, 150 µM (in vitro [2]) [%] | IC10 haemolysis (canine erythrocytes) [µM] | hemolysis at 1 h, 150 µM (in vitro [3]) [%] | MIC against Staphylococcus pseudintermedius [4] [µg/mL] | MIC against Pseudomonas aeruginosa (Pseudomonas aeruginosa) [µg/mL] | MIC against Staphylococcus aureus (Staphylococcus aureus) [µg/mL] | hemolysis at 1 h, 150 µM (in vitro [5]) [%] | IC10 haemolysis (rat erythrocytes) [µM] | IC10 haemolysis (bovine erythrocytes) [µM] | Haemolytic activity (in words) (human erythrocytes) | Haemolysis at 80 µM (in words) (human erythrocytes) | Haemolysis at 80 µM (in words) (canine erythrocytes) | Haemolysis at 80 µM (in words) (rat erythrocytes)
1 | CC(C)C[C@@H](NC(=O)[C@H](CCCCN)NC(=O)[C@@H](N)CCCCN)C(=O)N[C@@H](CCCCN)C(=O)N[C@H](Cc1cccc2ccccc12)C(=O)N[C@H](Cc1ccccc1)C(=O)N[C@H](Cc1cccc2ccccc12)C(N)=O [Compound 10, Lys-Lys-Leu-Lys-(1-Nal)Ala-Phe-(1-Nal)Ala] (HELM PEPTIDE1{K.K.[dL].K.[O=C([C@@H](Cc1cccc2ccccc12)N[*:1])[*:2]].[dF].[O=C([C@@H](Cc1cccc2ccccc12)N[*:1])[*:2]].[am]}$$$$V2.0) | > 150 | > 150 | > 150 | < 8 | > 150 | 36.3 | 43.4 | < 8 | 4 to 8 | 16 to 32 | 16 (≈ 15.1 µM) | < 8 | > 150 |  |  |  |  | 
2 | CCCCN(CC(=O)N[C@@H](CCCCN)C(=O)N(CC(=O)N(CC(=O)N(CC(N)=O)Cc1cccc2ccccc12)Cc1ccccc1)Cc1cccc2ccccc12)C(=O)[C@H](CCCCN)NC(=O)[C@@H](N)CCCCN [Compound 14, Lys-Lys-(N-Bu)Gly-Lys-(N1-Nal)Gly-(N-Phe)Gly-(N1-Nal)Gly] (H-KK[NBuGly]K[N(1-naphthylmethyl)Gly][Nphe][N(1-naphthylmethyl)Gly]-NH2) | 118 | > 150 | > 150 | 66.4 | 54.0 | 28.1 | 26.23 | 13.9 | 4 (≈ 3.79 µM) | 32 (≈ 30.3 µM) | 8 to 16 | 31.6 | 93.1 | 123.9 | amongst the top five most haemolytic compounds |  |  | 
3 | CC(C)C[C@H](NC(=O)[C@H](CCCCN)NC(=O)[C@H](CCCCN)NC(=O)[C@@H](N)CCCCN)C(=O)N[C@@H](Cc1cccc2ccccc12)C(=O)N[C@@H](Cc1ccc(O)cc1)C(=O)N[C@@H](Cc1cccc2ccccc12)C(N)=O [Compound 19, Lys-Lys-Lys-Leu(1-Nal)Ala-Tyr-(1-Nal)Ala] (HELM PEPTIDE1{K.K.K.L.[O=C([C@H](Cc1cccc2ccccc12)N[*:1])[*:2]].Y.[O=C([C@H](Cc1cccc2ccccc12)N[*:1])[*:2]].[am]}$$$$V2.0) | 51.1 | 20.8 | 74.9 | 82.7 | 13.5 | 101 | 13.2 | < 8 |  | > 64 | > 64 | 101 | 45.0 |  |  | near total haemolysis | near total haemolysis | near total haemolysis
4 | CCCC[C@H](NC(=O)[C@H](CCCCN)NC(=O)[C@H](CCCCN)NC(=O)[C@@H](N)CCCCN)C(=O)N[C@@H](Cc1ccc2ccccc2c1)C(=O)N[C@@H](Cc1ccc(O)cc1)C(=O)N[C@@H](Cc1ccc2ccccc2c1)C(N)=O [Compound 22, Lys-Lys-Lys-Nle-(2-Nal)Ala-Tyr-(2-Nal)Ala] (HELM PEPTIDE1{K.K.K.[Nle].[O=C([C@H](Cc1ccc2ccccc2c1)N[*:1])[*:2]].Y.[O=C([C@H](Cc1ccc2ccccc2c1)N[*:1])[*:2]].[am]}$$$$V2.0) | > 150 | 71.2 | > 150 | 23.7 | 88.3 | 83 | 30.9 | < 8 | 2 to 4 | 64 (≈ 59.7 µM) | 64 (≈ 59.7 µM) | 24.2 | 83.0 |  |  |  |  | 

Second part, led by results:

Row | IC50 (human erythrocytes) [µM] | IC50 (canine erythrocytes) [µM] | IC50 (rat erythrocytes) [µM] | Structure (SMILES) | hemolysis at 1 h, 150 µM (in vitro [1]) [%] | IC10 haemolysis (human erythrocytes) [µM] | hemolysis at 1 h, 150 µM (in vitro [2]) [%] | IC10 haemolysis (canine erythrocytes) [µM] | hemolysis at 1 h, 150 µM (in vitro [3]) [%] | MIC against Staphylococcus pseudintermedius [4] [µg/mL] | MIC against Pseudomonas aeruginosa (Pseudomonas aeruginosa) [µg/mL] | MIC against Staphylococcus aureus (Staphylococcus aureus) [µg/mL] | hemolysis at 1 h, 150 µM (in vitro [5]) [%] | IC10 haemolysis (rat erythrocytes) [µM] | IC10 haemolysis (bovine erythrocytes) [µM] | Haemolytic activity (in words) (human erythrocytes) | Haemolysis at 80 µM (in words) (human erythrocytes) | Haemolysis at 80 µM (in words) (canine erythrocytes) | Haemolysis at 80 µM (in words) (rat erythrocytes)
5 | > 150 | > 150 | > 150 | CC(C)C[C@@H](NC(=O)[C@H](CCCCN)NC(=O)[C@@H](Cc1ccc2ccccc2c1)NC(=O)[C@@H](Cc1ccccc1)NC(=O)[C@H](N)Cc1ccc2ccccc2c1)C(=O)N[C@@H](CCCCN)C(=O)N[C@@H](CCCCN)C(N)=O [Compound 3, (2-Nal)Ala-Phe-(2-Nal)Ala-Lys-Leu-Lys-Lys] (HELM PEPTIDE1{[N[C@H](Cc1ccc2ccccc2c1)C(=O)[*:2]].[dF].[O=C([C@@H](Cc1ccc2ccccc2c1)N[*:1])[*:2]].K.[dL].K.K.[am]}$$$$V2.0) | < 8 | > 150 | 10.5 | 118.3 | < 8 | 16 (≈ 15.1 µM) | > 64 | 32 to 64 | < 8 | > 150 |  |  |  |  | 
6 | > 150 | > 150 | > 150 | CC(C)C[C@@H](NC(=O)[C@H](CCCCN)NC(=O)[C@H](CCCCN)NC(=O)[C@@H](N)CCCCN)C(=O)N[C@H](Cc1ccc2ccccc2c1)C(=O)N[C@H](Cc1ccccc1)C(=O)N[C@H](Cc1ccc2ccccc2c1)C(N)=O [Compound 12, Lys-Lys-Lys-Leu-(2-Nal)Ala-Phe-(2-Nal)Ala] (HELM PEPTIDE1{K.K.K.[dL].[O=C([C@@H](Cc1ccc2ccccc2c1)N[*:1])[*:2]].[dF].[O=C([C@@H](Cc1ccc2ccccc2c1)N[*:1])[*:2]].[am]}$$$$V2.0) | 43.5 | 34.6 | 50.2 | 29.3 | < 8 | 2 to 4 | 32 (≈ 30.3 µM) | 8 to 16 | 17.9 | 105.8 |  |  |  |  | 
7 | 136 | > 150 | > 150 | CC(C)C[C@H](NC(=O)[C@H](CCCCN)NC(=O)[C@H](Cc1ccc2ccccc2c1)NC(=O)[C@H](Cc1ccccc1)NC(=O)[C@@H](N)Cc1ccc2ccccc2c1)C(=O)N[C@@H](CCCCN)C(=O)N[C@@H](CCCCN)C(N)=O [Compound 13, (2-Nal)Ala-Phe-(2-Nal)Ala-Lys-Leu-Lys-Lys] (HELM PEPTIDE1{[N[C@@H](Cc1ccc2ccccc2c1)C(=O)[*:2]].F.[O=C([C@H](Cc1ccc2ccccc2c1)N[*:1])[*:2]].K.L.K.K.[am]}$$$$V2.0; N-terminus assumed) | 55.3 | 44.2 | 27.4 | 27.1 | 17.6 | 4 to 8 | 64 (≈ 60.6 µM) | 16 (≈ 15.1 µM) | < 8 | > 150 | 96.7 |  |  |  | 
8 | 134 | > 150 | > 150 | CC(C)C[C@H](NC(=O)[C@H](CCCCN)NC(=O)[C@H](Cc1cccc2ccccc12)NC(=O)[C@H](Cc1ccccc1)NC(=O)[C@@H](N)Cc1cccc2ccccc12)C(=O)N[C@@H](CCCCN)C(=O)N[C@@H](CCCCN)C(N)=O [Compound 16, (1-Nal)Ala-Phe-(1-Nal)Ala-Lys-Leu-Lys-Lys] (HELM PEPTIDE1{[N[C@@H](Cc1cccc2ccccc12)C(=O)[*:2]].F.[O=C([C@H](Cc1cccc2ccccc12)N[*:1])[*:2]].K.L.K.K.[am]}$$$$V2.0) | 55.5 | 47.4 | 27.7 | 16.4 | 30.6 | 8 to 16 | 64 (≈ 60.6 µM) | 16 to 32 | 11 | 145.0 | 45.2 |  |  |  | 
